The results in this text go back to ChEMBL document CHEMBL1152025, “Enzymatic asymmetric synthesis of (2R, 4R, 5S)-2-amino-4,5-(1,2-cyclohexyl)-7-phosphonoheptanoic acid, a potent, selective and competitive NMDA antagonist” (Bioorg Med Chem Lett, 1993).

The target in assay [1] is Glutamate [NMDA] receptor. Put plainly: Tested for the inhibitory activity by the inhibition of excitatory L-[3H]Glutamate binding to NMDA recognition sites. Type of assay: protein-complex assay.
Assay [2] addresses Glutamate [NMDA] receptor. Put plainly: Tested for the inhibitory activity by the inhibition of excitatory [3H]CGS-19,755 binding to NMDA recognition sites. The format is protein-complex assay.
A short description of assay [3]: Tested for the ability to inhibit the pentylenetetrazole induced seizures against NMDA antagonist by intraperitoneal administration. Type of assay: functional. The following applies: ip.
Assay [4] in a line: Tested for the ability to inhibit the NMDA induced seizures against NMDA antagonist by intraperitoneal administration. To be noted: ip. Type of assay: functional.
Assay [5] can be described thus: Tested for the ability to inhibit the maximal electroshock induced seizures against NMDA antagonist by intraperitoneal administration. The following applies: ip. Type of assay: functional.

`N[C@H](C[C@H]1CCCC[C@H]1CCP(=O)(O)O)C(=O)O`: the IC50 in assay [1] stood at 0.607 µM; in assay [2], 0.148 µM. Further, the results for the ED50 in assay [3], in assay [4] and in assay [5] were 4.51 mg/kg, 2.68 mg/kg and 13.4 mg/kg, respectively.
As for `N[C@@H](C[C@@H]1CCCC[C@@H]1CCP(=O)(O)O)C(=O)O`, the 50% inhibitory concentration (IC50) stood at 6.46 µM in assay [1] and 0.239 µM in assay [2].
Consider `N[C@H](C[C@@H]1CCCC[C@@H]1CCP(=O)(O)O)C(=O)O`, for which the IC50 in assay [1] worked out at 3.13 µM; in assay [2], 0.555 µM.
On the same counts, the results for `N[C@@H](C[C@H]1CCCC[C@H]1CCP(=O)(O)O)C(=O)O` are 2.59 µM and 0.264 µM.
With `NC(CC1CCCCC1CCP(=O)(O)O)C(=O)O` (stereo unspecified), the IC50 in assay [1] stood at 1.6 µM; in assay [2] it was 0.976 µM. The ED50 was 6.02 mg/kg in assay [3], 12.4 mg/kg in assay [4] and > 15 mg/kg in assay [5].
Regarding `O=C(O)[C@H]1CN(CCCP(=O)(O)O)CCN1`, the figures for the concentration for half-maximal inhibition (IC50) in assay [1] and in assay [2] were 0.321 µM and 0.086 µM, respectively.
Consider `O=C(O)[C@@H]1C[C@H](CP(=O)(O)O)CCN1` (single isomer, unassigned) [SELFOTEL], for which the ED50 was 29 mg/kg in assay [3], 2.64 mg/kg in assay [4] and 12.9 mg/kg in assay [5].
Regarding `CC(=CC(N)C(=O)O)CP(=O)(O)O` (stereo unspecified) [CGP-37849], the IC50 in assay [1] was 0.0257 µM; in assay [2] it was 0.018 µM. For the same compound, the ED50 in assay [3] is > 10 mg/kg; in assay [4], 3.41 mg/kg; in assay [5], 3.64 mg/kg.
